Series [1] relates to IL-17 production of mouse spleen cells stimulated by rm-IL-23. Briefly: Production of IL-17 induced when mouse spleen cells were stimulated by recombinant mouse interleukin-23 (rm-IL-23). It counts as cell-based. Conditions: inhibition of IL-17 production, DBA/1J mouse spleen cells, rm-IL-23 1 nmol/L, ELISA. As for the experimental part: Effect on Production of IL-17 Induced when Mouse Spleen Cells were Stimulated by Recombinant Mouse Interleukin-23 (rm-IL-23)
An RPMI1640 (Sigma-Aldrich) was used as a medium, to which penicillin G potassium (50 units/mL; Gibco), streptomycin (50 μg/mL; Gibco) and 2-mercaptoethanol (50 μmol/l; Sigma-Aldrich) were added, and then 10% of fetal calf serum (FCS; Cell Culture Technology) inactivated at 56° C. for 30 minutes was added and used in the Test. The test compound was dissolved in dimethylsulfoxide and diluted with 10% FCS-containing RPMI1640 medium to a desired concentration and used in the test. The spleens were aseptically taken out from 6-7 week-old male DBA/1J mice (Charles River Japan, Inc.) and a single cell suspension of spleen cells was prepared and hemolyzed by hypotonic treatment with a mixture of 0.83% aqueous solution of ammonium chloride and Tris-HCl buffer of pH 7.65 (9:1). A cell suspension prepared by 10% FCS-containing RPMI1640 medium was added to flat-bottomed 96 well microtestplate at 2×10^5 cells/well. Test compounds and rm-IL-23 (R&D systems) were diluted with a medium to 1 to 1,000 nmol/L, and 1 nmol/L of the final concentration respectively, which were added and cultured at 37° C., 5% carbon dioxide and 95% air for 72 hours. After completion of the culture, culture supernatant was sampled and an amount of IL-17 production was determined by ELISA method. After sampling the supernatant, WST-8 (Seikagaku Corporation) was added at 10 μl/well and cultured at 37° C., 5% carbon dioxide and 95% air for 4 hours. Then, absorbance (O.D.: Optical Density) at 450 nm was measured by a microplate reader and the value was adopted as an index of cell survivability. An inhibition rate (%) was calculated according to the following formula on the basis of an average of an amount of IL-17 production and a O.D. values of the well containing a test compound of each concentration.
Based on the dose-response curve obtained by plotting the inhibition rate in the longitudinal axis and concentration in the horizontal axis, the concentration of the compound which inhibits the level to 50% of the value of the control group (IC50; nmol/L) was determined by linear regression analysis. The results was shown in the next Table 1

Series [2] deals with hERG (Homo sapiens, UniProt Q12809). Briefly: Effects on hERG current (whole-cell clamping). Conditions: human, HEK 293 cells that express hERG.
Chain of hERG (Q12809 whole entry): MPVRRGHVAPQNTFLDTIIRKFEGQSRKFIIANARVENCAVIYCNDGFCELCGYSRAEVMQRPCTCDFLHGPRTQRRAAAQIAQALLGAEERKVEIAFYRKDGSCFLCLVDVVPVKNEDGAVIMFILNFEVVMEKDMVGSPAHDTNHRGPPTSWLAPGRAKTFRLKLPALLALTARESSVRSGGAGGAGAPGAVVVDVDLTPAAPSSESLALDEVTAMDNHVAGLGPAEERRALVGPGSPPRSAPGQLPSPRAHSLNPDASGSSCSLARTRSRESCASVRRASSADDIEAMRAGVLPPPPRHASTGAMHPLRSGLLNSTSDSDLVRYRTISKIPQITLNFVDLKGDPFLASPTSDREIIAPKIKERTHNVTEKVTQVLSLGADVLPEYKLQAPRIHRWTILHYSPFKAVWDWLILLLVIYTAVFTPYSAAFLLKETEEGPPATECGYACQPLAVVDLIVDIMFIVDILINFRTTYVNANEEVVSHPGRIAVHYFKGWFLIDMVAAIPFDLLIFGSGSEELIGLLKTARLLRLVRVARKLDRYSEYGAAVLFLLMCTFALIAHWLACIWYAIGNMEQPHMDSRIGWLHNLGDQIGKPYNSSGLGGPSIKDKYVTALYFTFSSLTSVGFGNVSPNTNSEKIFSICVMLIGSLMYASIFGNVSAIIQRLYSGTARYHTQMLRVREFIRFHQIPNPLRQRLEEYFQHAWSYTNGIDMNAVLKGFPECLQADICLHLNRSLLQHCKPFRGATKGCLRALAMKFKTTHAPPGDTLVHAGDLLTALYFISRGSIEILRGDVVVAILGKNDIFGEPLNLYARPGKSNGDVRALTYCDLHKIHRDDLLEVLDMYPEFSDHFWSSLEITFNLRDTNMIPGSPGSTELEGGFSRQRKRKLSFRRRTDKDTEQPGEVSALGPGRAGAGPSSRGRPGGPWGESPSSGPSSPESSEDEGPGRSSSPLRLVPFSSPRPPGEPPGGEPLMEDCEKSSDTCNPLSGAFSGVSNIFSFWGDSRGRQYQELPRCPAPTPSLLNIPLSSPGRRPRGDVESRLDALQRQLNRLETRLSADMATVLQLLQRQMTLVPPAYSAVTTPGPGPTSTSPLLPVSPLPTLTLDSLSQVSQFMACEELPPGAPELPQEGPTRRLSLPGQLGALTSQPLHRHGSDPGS
The mark [3] stands for this setting: pH 7.4, hERG inhibition rate (%) (1 μM), 1 μM, tail peak current, hERG-expressed HEK 293 cells.

Counter-ions that a name gives are not always drawn.

In the case of `Cc1cc(NC(=O)c2cnn(-c3ccc(C(F)(F)F)cn3)c2C)cnc1C1=CCC(C(=O)NC(C)(C)C)CC1` (stereo not drawn) [Example D268], the IC50 in series [1] (Mus musculus, 72 h) was 155 nM. In series [2] (setting [3]), testing at 1 µM gave an inhibition of 9.8%.
Regarding `Cc1c(C(=O)Nc2ccc([C@]3(C#N)CC[C@@H](N4CCOCC4)CC3)nc2)cnn1-c1ccc(C(C)(C)C)cc1` [Example D88], the concentration for half-maximal inhibition (IC50) in series [1] (Mus musculus, 72 h) came to 52.6 nM. Further, the inhibition at 1 µM in series [2] (setting [3]) stood at 43%.
On the same counts, the results for `Cc1c(C(=O)Nc2ccc(C3(C#N)CCC4(CC3)OCCO4)nc2)cnn1-c1ccc(Br)cn1` [Example D29] are 86.9 nM and 27.7%.
Regarding `Cc1c(C(=O)Nc2ccc([C@]3(C#N)CC[C@@H](N4CCOCC4)CC3)nc2)cnn1-c1ncc(C(F)(F)F)cc1F` [Example D14, N-{6-[r-1-Cyano-c-4-(morpholin-4-yl)cyclohexyl]pyridin-3-yl}-1-[3-fluoro-5-(trifluoromethyl)pyridin-2-yl]-5-methyl-1H-pyrazole-4-carboxamide], the half-maximal inhibitory concentration (IC50) in series [1] (Mus musculus, 72 h) came out at 162 nM. The inhibition at 1 µM in series [2] (setting [3]) worked out at 6.4%.
On the same counts, the results for `Cc1cc(NC(=O)c2cnn(-c3ccc(C(F)(F)F)cn3)c2C)cnc1C1=CC[C@H](N2CCOCC2)CC1` [Example D21, (R)-5-Methyl-N-{5-methyl-6-[4-(morpholin-4-yl)cyclohex-1-en-1-yl]pyridin-3-yl}-1-[5-(trifluoromethyl)pyridin-2-yl]-1H-pyrazole-4-carboxamide] are 39.5 nM and 14.3%.
Turning to `Cc1c(C(=O)Nc2ccc(C3(C(=O)O)CCCCC3)nc2)cnn1-c1ccc(Cl)cc1` [Example K4, 1-[5-({[1-(4-Chlorophenyl)-5-methyl-1H-pyrazol-4-yl]carbonyl}amino)pyridin-2-yl]-cyclohexanecarboxylic acid], the half-maximal inhibitory concentration (IC50) in series [1] (Mus musculus, 72 h) came to 127 nM. Further, in series [2] (setting [3]), the inhibition at 1 µM turned out to be 17.2%.
In the same order, the values of `Cc1c(C(=O)Nc2ccc([C@]3(C#N)CC[C@]4(C=CCO4)CC3)nc2)cnn1-c1ccc(C(F)(F)F)cn1` [Example D270] are 55.8 nM and 0.5%.
On the same counts, the results for `Cc1c(C(=O)Nc2ccc([C@H]3CC[C@H](O)CC3)nc2)cnn1-c1ccc(C(C)(C)C)cc1` [Example G4, trans-1-(4-tert-Butylphenyl)-N-[6-(4-hydroxycyclohexyl)pyridin-3-yl]-5-methyl-1H-pyrazole-4-carboxamide] are 48 nM and 5.2%.
Turning to `Cc1c(C(=O)Nc2ccc([C@]3(C#N)CC[C@@H](N4CCOCC4)CC3)nc2)cnn1-c1ccc(C(C)(C)C)cn1` [Example D104], the IC50 in series [1] (Mus musculus, 72 h) came out at 212 nM. The inhibition at 1 µM in series [2] (setting [3]) is 13.8%.
Turning to `Cc1c(C(=O)Nc2ccc(C3(C#N)CCC4(CC3)OCCO4)nc2)cnn1-c1ccc(C(F)(F)F)cc1` [Example E6], in series [1] (Mus musculus, 72 h), the IC50 was 28.5 nM. Besides, in series [2] (setting [3]), the inhibition at 1 µM stood at 36.9%.
In the case of `Cc1cc(NC(=O)c2cnn(-c3ccc(C(F)(F)F)cn3)c2C)cnc1C1=CCC(N(C)C(=O)C(F)(F)F)CC1` (stereo not drawn) [Example D265, 5-Methyl-N-(5-methyl-6-{4-[N-methyl-N-(2,2,2-trifluoroacetyl)amino]cyclohex-1-en-1-yl}pyridin-3-yl)-1-[5-(trifluoromethyl)pyridin-2-yl]-1H-pyrazole-4-carboxamide], the IC50 in series [1] (Mus musculus, 72 h) was 4.91 nM. The compound further returned an inhibition at 1 µM in series [2] (setting [3]) of 35.9%.
Regarding `Cc1c(C(=O)Nc2ccc(C3(C#N)CCC(=O)CC3)nc2)cnn1-c1ccc(F)c(F)c1` [Example F10], the IC50 in series [1] (72 hours) worked out at 278 nM. This compound displayed an inhibition at 1 µM in series [2] (pH 7.4) of 8%.
For the compound `Cc1cc(NC(=O)c2cnn(-c3ccc(C(F)(F)F)cc3)c2C)cnc1C1=CCOCC1` [Example E30, N-[6-(3,6-Dihydro-2H-pyran-4-yl)-5-methylpyridin-3-yl]-5-methyl-1-[4-(trifluoromethyl)-phenyl]-1H-pyrazole-4-carboxamide], in series [1] (Mus musculus, 72 h), the IC50 was determined as 149 nM. Further, testing at 1 µM in series [2] (setting [3]) gave an inhibition of 10.7%.
On the same counts, the results for `Cc1cc(NC(=O)c2cnn(-c3ccc(C4CC4)cn3)c2C)cnc1C1=CCC(C(=O)NC(C)(C)C)CC1` (stereo not drawn) [Example D269] are 207 nM and 14.1%.
In the same order, the values of `Cc1cc(NC(=O)c2cnn(-c3ccc(C(F)(F)F)cn3)c2C)cnc1[C@H]1CC[C@H](O)CC1` [Example J7, trans-N-[6-(4-Hydroxycyclohexyl)-5-methylpyridin-3-yl]-5-methyl-1-[5-(trifluoromethyl)-pyridin-2-yl]-1H-pyrazole-4-carboxamide] are 67.5 nM and 7.9%.
`Cc1cc(NC(=O)c2cnn(-c3ncc(C(F)(F)F)cc3C)c2C)cnc1C1=CCC(N2CCOCC2)CC1` (stereo not drawn) [Example D188]: the half-maximal inhibitory concentration (IC50) in series [1] (Mus musculus, 72 h) came to 86.3 nM. In series [2] (setting [3]), this compound returned an inhibition at 1 µM of 40%.
On the same counts, the results for `Cc1c(C(=O)Nc2ccc(C3(C#N)CCC(=O)CC3)nc2)cnn1-c1ccc(C(F)(F)F)cn1` [Example F2, N-[6-(1-Cyano-4-oxocyclohexyl)pyridin-3-yl]-5-methyl-1-[5-(trifluoromethyl)pyridin-2-yl]-1H-pyrazole-4-carboxamide hydrochloride] are 53.4 nM and 22.4%.
On the same counts, the results for `CC[C@]1(O)CC[C@@](C#N)(c2ccc(NC(=O)c3cnn(-c4ccc(C)cc4)c3C)cn2)CC1` [Example K34, N-[6-(r-1-Cyano-4-ethyl-t-4-hydroxycyclohexan-1-yl)pyridin-3-yl]-5-methyl-1-(4-methylphenyl)-1H-pyrazole-4-carboxamide] are 154 nM and 0.5%.
For `Cc1cc(NC(=O)c2cnn(-c3ccc(C4CC4)cn3)c2C)cnc1[C@H]1CC[C@H](O)CC1` [Example J12], the IC50 in series [1] (Mus musculus, 72 h) was found to be 149 nM. For the same compound, the inhibition at 1 µM in series [2] (setting [3]) was 10.8%.
On to `Cc1c(C(=O)Nc2ccc([C@]3(O)CC[C@@H](N4CCOCC4)CC3)nc2)cnn1-c1ccc(C(F)(F)F)cc1` [Example D53], for which, in series [1] (Mus musculus, 72 h), the half-maximal inhibitory concentration (IC50) amounted to 169 nM. Besides, at 1 µM the inhibition in series [2] (setting [3]) was 25.1%.
In the same order, the values of `Cc1cc(NC(=O)c2cnn(-c3ccc(C(F)(F)F)cn3)c2C)cnc1C1CCN(S(=O)(=O)C(C)C)CC1` [Example K55, 5-Methyl-N-{5-methyl-6-[1-(propane-2-sulfonyl)piperidin-4-yl]pyridin-3-yl}-1-[5-(trifluoromethyl)pyridin-2-yl]-1H-pyrazole-4-carboxamide] are 46.4 nM and 29.5%.
On the same counts, the results for `Cc1c(C(=O)Nc2ccc([C@]3(C#N)CC[C@@H](O)CC3)nc2)cnn1-c1ccc(OC(F)(F)F)cc1` [Example G11] are 84.6 nM and 12.2%.
In the same order, the values of `Cc1c(C(=O)Nc2ccc(C3(C#N)CCC(=O)CC3)nc2)cnn1-c1ccc(F)cc1` [Example F6] are 107 nM and 6.8%.
In the case of `Cc1c(C(=O)Nc2cnc(C3=CCC(N(C)C(=O)C(C)(C)C)CC3)cn2)cnn1-c1ccc(C(F)(F)F)cn1` (stereo not drawn) [Example K64, N-(5-{4-[N-(2,2-Dimethylpropion-1-yl)-N-methylamino]cyclohex-1-en-1-yl}pyrazin-2-yl)-5-methyl-1-[5-(trifluoromethyl)pyridin-2-yl]-1H-pyrazole-4-carboxamide], the IC50 in series [1] (Mus musculus, 72 h) is 157 nM. The compound also showed an inhibition at 1 µM in series [2] (setting [3]) of 2.3%.
As to `Cc1cc(NC(=O)c2cnn(-c3ccc(C(F)(F)F)cn3)c2C)cnc1C1=CCC(C(=O)N(C)C)CC1` (stereo not drawn) [Example D221, N-[6-(4-N,N-Dimethylcarbamoylcyclohex-1-en-1-yl)-5-methylpyridin-3-yl]-5-methyl-1-[5-(trifluoromethyl)pyridin-2-yl]-1H-pyrazole-4-carboxamide], the IC50 in series [1] (Mus musculus, 72 h) came to 31.4 nM. In series [2] (setting [3]), this compound yielded an inhibition at 1 µM of 20.1%.
In the same order, the values of `Cc1cc(NC(=O)c2cnn(-c3ccc(C(F)(F)F)cn3)c2C)cnc1C1=CC[C@@H](N2CCOCC2)CC1` [Example D22, (S)-5-Methyl-N-{5-methyl-6-[4-(morpholin-4-yl)cyclohex-1-en-1-yl]pyridin-3-yl}-1-[5-(trifluoromethyl)pyridin-2-yl]-1H-pyrazole-4-carboxamide] are 36.2 nM and 31%.
Turning to `Cc1c(C(=O)Nc2ccc([C@H]3CC[C@H](N4CCOCC4)CC3)nc2)cnn1-c1ccc(C2CC2)cn1` [Example D64], the IC50 in series [1] (Mus musculus, 72 h) came to 160 nM. This compound returned an inhibition at 1 µM in series [2] (setting [3]) of 27.9%.

The record behind these values is patent US9150555B2, “Amide derivative and use thereof” (Mitsubishi Tanabe Pharma Corporation, priority 2010, dated 2015).
